# Target: T1, HIF-2α HIS TAG-PASB Domain (Homo sapiens, UniProt Q99814)
# T1 construct: 100 nM HIF-2α HIS TAG-PASB Domain
# Experiment: HIF-2α Scintillation Proximity Assay (SPA)
# Format: binding
# Settings: Scintillation Proximity Assay IC50 (nM)
# Experimental: The total assay volume was about 100 μL in the following configuration: 2 μL compound in 100% DMSO, 88 μL buffer with protein and probe and 10 μL of SPA beads. […] The percent inhibition was determined and IC50 values were calculated using the Dotmatics system based on the following equation: % inhibition=[(high control−sample)/(high control−low control)]×100.
# T1 sequence (Q99814 240-350 limits assumed): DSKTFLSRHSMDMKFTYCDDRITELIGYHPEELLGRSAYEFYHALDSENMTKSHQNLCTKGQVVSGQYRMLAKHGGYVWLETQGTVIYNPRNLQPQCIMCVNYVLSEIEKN
row,Compound,IC50 [nM]
1,O=S1(=O)c2ccc(Oc3cncc(Cl)c3)c(C(F)F)c2C(O)C1(F)F (stereo not shown) [Compound 381],50 to 249
2,CC1(C)C(O)c2c(ccc(Oc3cc(F)cc(Cl)c3)c2Br)S1(=O)=O (stereo not shown) [Compound 406],> 1000
3,N#Cc1c(Oc2cc(F)cc(Cl)c2)ccc2c1C(O)C(F)(F)S2(=O)=O (stereo not shown) [Compound 356],< 50
4,O=S1(=O)CCC(O)c2c1ccc(Oc1cc(F)cc(F)c1)c2C(F)F (stereo not shown) [Compound 402],> 1000
5,O=S1(=O)c2ccc(Oc3cc(F)cc(Cl)c3)c(C(F)F)c2C(O)C1(F)F (stereo not shown) [Compound 364],< 50
6,Cc1c(Oc2cc(F)cc(Cl)c2)ccc2c1C(O)C(F)(F)S2(=O)=O (stereo not shown) [Compound 359],< 50
7,N#Cc1cc(F)cc(Oc2ccc3c(c2C(F)F)C(=O)C(F)(F)S3(=O)=O)c1 [Compound 385],> 1000

# Same assay, conditions: read-out: Scintillation Proximity Assay IC50
row,Compound,IC50 [nM]
1,N#CN=S(=O)(CF)c1ccc(Oc2cc(F)cc(C#N)c2)c2c1[C@H](O)CC2 (stereo partly shown) [Compound 282],> 1000
2,OC1CCc2c(OCC(F)F)ccc(C(F)(F)F)c21 (stereo not shown) [Compound 662],> 1000
3,C=CCN=S(=O)(c1ccc(Oc2cc(F)cc(C#N)c2)c2c1[C@H](O)C(F)(F)C2)C(F)(F)F (stereo partly shown) [Compound 307],250 to 1000
4,CNS(=O)(=O)c1ccc(Oc2cc(F)cc(F)c2)c2c1C(O)CC2 (stereo not shown) [Compound 211],> 1000
5,"O=S(=O)(c1ccc(NC2CCOCC2)c2c1[C@H](O)CC2)C(F)F [Compound 494, (1R)-7-(difluoromethylsulfonyl)-4-(tetrahydropyran-4-ylamino)indan-1-ol]",> 1000
6,N#Cc1cc(F)cc(Oc2ccc3c(c2C(F)F)[C@H](N)C(F)(F)S3(=O)=O)c1 [Compound 384],> 1000
7,O=S(=O)(c1ccc(Oc2cc(F)cc(Cl)c2)c2c1COC2O)C(F)F (stereo not shown) [Compound 88],> 1000
8,O=S(=O)(c1ccc(OC2CNC2)c2c1[C@H](O)C(F)(F)C2)C(F)(F)F [Compound 792],> 1000
9,CS(=O)(=O)N1CCCC(Oc2ccc(S(=O)(=O)C(F)(F)F)c3c2CC(F)(F)C3O)C1 (stereo not shown) [Compound 628],> 1000
10,COc1ccc(I)c2c1CC(F)(F)C2O (stereo not shown) [Compound 679],> 1000
11,O=C1c2c(C(F)(F)F)ccc(OCC(F)F)c2CC1(F)F [Compound 695],> 1000
12,CCS(=O)(=O)c1ccc(Oc2cc(F)cc(C#N)c2)c2c1C(O)CC2 (stereo not shown) [Compound 205],> 1000
13,N#Cc1c(Oc2cc(F)cc(Cl)c2)ccc2c1CCS2(=O)=O [Compound 351],> 1000
14,CC(=O)N1CCC(Oc2ccc(S(=O)(=O)C(F)(F)F)c3c2CC(F)(F)C3O)C1 (stereo not shown) [Compound 629],> 1000
15,CS(=O)(=O)c1cc(F)c(Oc2cc(F)cc(C#N)c2)c2c1C(O)C(F)(F)C2 (stereo not shown) [Compound 219],> 1000
16,O=S(=O)(c1ccc(Nc2cncc(Cl)c2)c2c1C(O)CC2)C(F)(F)F (stereo not shown) [Compound 503],> 1000
17,CNC(=O)C(C)Oc1ccc(S(=O)(=O)C(F)(F)F)c2c1CC(F)(F)C2O (stereo not shown) [Compound 645],> 1000
18,CC1(O)c2c(ccc(OC3CC(F)(F)C3)c2C#N)S(=O)(=O)C1(F)F (stereo not shown) [Compound 461],> 1000
19,O=S(=O)(c1ccc(OC2CCCNC2)c2c1[C@H](O)C(F)(F)C2)C(F)(F)F (stereo partly shown) [Compound 797],> 1000
20,CS(=O)(=O)c1ccc(O[C@H]2CC[C@@H](C#N)CC2)c2c1[C@H](O)C(F)(F)[C@@H]2F [Compound 758],> 1000

row,Compound,IC50 [nM]
1,N#Cc1cc(S(=N)(=O)C(F)(F)F)ccc1Oc1cc(F)cc(Cl)c1 (stereo not shown) [Compound 72],250 to 1000
2,N#Cc1cncc(Oc2ccc(S(=O)(=O)CF)c3c2[C@H](F)C(F)(F)[C@H]3O)c1 [Compound 345],> 1000
3,CC(=O)Nc1ccc(S(=O)(=O)C(F)(F)F)c2c1CCC2O (stereo not shown) [Compound 518],> 1000
4,CS(=O)(=O)c1ccc(Oc2cncc(F)c2)c2c1[C@H](O)C(F)(F)[C@@H]2F [Compound 329],< 50
5,N#Cc1cc(F)cc(Oc2ccc(S(=O)(=O)C(F)F)c(C#N)c2Br)c1 [Compound 77],> 1000
6,O=S(=O)(c1ccc(Oc2cc(F)cc(Cl)c2)c(Cl)c1CNC1CCOCC1)C(F)F [Compound 48],250 to 1000
7,Cc1n[nH]c(C)c1-c1ccc(S(=O)(=O)C(F)(F)F)c2c1CC(F)(F)[C@H]2O [Compound 562],> 1000
8,O=S1(=O)CC(O)c2c1ccc(Oc1cc(F)cc(F)c1)c2Br (stereo not shown) [Compound 418],> 1000
9,Nc1ccc(Cl)cc1-c1ccc(S(=O)(=O)C(F)(F)F)c2c1CC(F)(F)[C@H]2O [Compound 540],> 1000
10,CS(=O)(=O)c1ccc(Oc2cncc(Cl)c2)c2c1[C@H](O)C(F)(F)[C@H]2F [Compound 332],> 1000
11,CS(=O)(=O)c1ccc(Oc2ccc(F)c(C#N)c2)c2c1[C@H](O)C(F)(F)[C@@H]2F [Compound 327],< 50
12,NC(=O)COc1ccc(S(=O)(=O)C(F)(F)F)c2c1CC(F)(F)C2O (stereo not shown) [Compound 640],> 1000
13,N#Cc1cc(F)cc(Oc2ccc3c(c2C(F)F)C(N)C(F)(F)S3(=O)=O)c1 (stereo not shown) [Compound 372],< 50
14,O=S(=O)(c1ccc(Oc2cccc(C(F)(F)F)c2)c(Br)c1CO)C(F)F [Compound 89],> 1000
15,O=S(=O)(c1ccc(-c2ccccc2O)c2c1[C@H](O)C(F)(F)C2)C(F)(F)F [Compound 564],> 1000
16,N#Cc1cncc(Oc2ccc(S(=O)(=O)CF)c3c2[C@@H](F)C(F)(F)[C@H]3O)c1 [Compound 344],< 50
17,Cc1ccc(Cl)cc1Oc1ccc(S(=O)(=O)C(F)(F)F)cc1Br [Compound 174],> 1000
18,"CS(=O)(=O)c1ccc(N2CCC[C@H](O)C2)c2c1[C@H](O)C(F)(F)[C@@H]2F [Compound 484, (S)-1-((1S,3R)-2,2,3-trifluoro-1-hydroxy-7-(methylsulfonyl)-2,3-dihydro-1H-inden-4-yl)piperidin-3-ol]",> 1000
19,N#Cc1cc(F)cc(Oc2ccc(S(=N)(=O)C(F)(F)F)c3c2CCC3O)c1 (stereo not shown) [Compound 259],> 1000

# The next lines start with the values.
row,IC50 [nM],Compound
1,> 1000,"O=S(=O)(c1ccc(CC(O)CO)c2c1C(O)C(F)(F)C2)C(F)(F)F (stereo not shown) [Compound 521, 3-(2,2-difluoro-1-hydroxy-7-((trifluoromethyl)sulfonyl)-2,3-dihydro-1H-inden-4-yl)propane-1,2-diol]"
2,> 1000,OC1c2c(F)ccc(OCC(F)F)c2CC1(F)F (stereo not shown) [Compound 652]
3,> 1000,O/N=C1\CCc2c(OCC(F)F)ccc(C(F)(F)F)c21 [Compound 698]
4,> 1000,"O=S(=O)(c1ccc(Sc2cc(F)cc(Cl)c2)c2c1[C@H](O)CC2)C(F)F [Compound 493, (R)-4-((3-chloro-5-fluorophenyl)thio)-7-((difluoromethyl)sulfonyl)-2,3-dihydro-1H-inden-1-ol]"
5,> 1000,CS(=O)(=O)c1ccc(C(F)(F)CO)c2c1C(O)C(F)(F)C2 (stereo not shown) [Compound 555]
6,> 1000,O=S(=O)(c1ccc(Oc2cccn3ccnc23)c2c1C(O)C(F)(F)C2)C(F)(F)F (stereo not shown) [Compound 246]
7,> 1000,N#Cc1cc(Oc2ccc(S(=O)(=O)C(F)F)c3c2CC(F)(F)C3=O)ccc1F [Compound 199]
8,50 to 249,CS(=O)(=O)c1ccc(Oc2cncc(C#N)c2)c2c1[C@H](O)[C@H](F)[C@@H]2F [Compound 333]
9,> 1000,Fc1cc(Cl)cc(Oc2ccc(C(F)(F)F)c(Cl)c2Br)c1 [Compound 97]
10,> 1000,CS(=O)(=NC#N)c1ccc(Oc2cc(F)cc(C#N)c2)c2c1[C@H](O)C(F)(F)[C@H]2F (stereo partly shown) [Compound 318]
11,50 to 249,CC1(O)c2c(ccc(Oc3cc(F)cc(C#N)c3)c2C(F)F)S(=O)(=O)C1(F)F (stereo not shown) [Compound 442]
12,> 1000,N#Cc1cc(F)cc(Oc2ccc3c(c2C(F)F)C(O)(C(F)(F)F)C(F)(F)S3(=O)=O)c1 (stereo not shown) [Compound 445]
13,> 1000,CS(=O)(=O)c1ccc(N2CCC[C@@H](O)C2)c2c1[C@H](O)C(F)(F)[C@@H]2F [Compound 553]
14,> 1000,CC1(C)C=C(c2ccc(S(=O)(=O)C(F)(F)F)c3c2CC(F)(F)[C@H]3O)C(O)CC1 (stereo partly shown) [Compound 543]
15,> 1000,O=S(=O)(c1ccc(C(O)CO)c2c1[C@H](O)C(F)(F)C2)C(F)(F)F (stereo partly shown) [Compound 533]
16,> 1000,O=C1CS(=O)(=O)c2ccc(Oc3cc(F)cc(F)c3)cc21 [Compound 417]
17,> 1000,CC1(C)CCC(=O)[C@@H](c2ccc(S(=O)(=O)C(F)(F)F)c3c2CC(F)(F)[C@H]3O)C1 [Compound 546]
18,> 1000,CCc1ccc(S(=O)(=O)C(F)(F)F)c2c1CCC2O (stereo not shown) [Compound 514]
19,> 1000,CS(=O)(=O)c1ccc(Oc2cncc(Br)c2)c2c1C(=O)C(F)(F)C2 [Compound 323]
20,> 1000,N#Cc1cc(F)cc(Oc2ccc(S(N)(=O)=O)c3c2[C@@H](O)C(F)(F)[C@H]3O)c1 [Compound 337]
21,> 1000,CS(=O)(=O)CCCOc1ccc(S(=O)(=O)C(F)(F)F)c2c1CC(F)(F)C2O (stereo not shown) [Compound 631]
22,> 1000,O=C1c2c(ccc(Oc3cc(F)cc(Cl)c3)c2Br)S(=O)(=O)C12CC2 [Compound 404]
23,> 1000,COCCCOc1ccc(S(=O)(=O)C(F)(F)F)c2c1CCC2O (stereo not shown) [Compound 600]
24,< 50,CS(=O)(=O)c1ccc(Oc2cncc(Br)c2)c2c1[C@H](O)[C@H](F)[C@@H]2F [Compound 328]
25,50 to 249,Cc1c(Oc2cc(F)cc(C#N)c2)ccc(S(=O)(=O)C(F)(F)F)c1Br [Compound 141]
26,> 1000,O=S(=O)(c1ccc(Nc2ccc(F)c(Cl)c2)c2c1C(O)CC2)C(F)(F)F (stereo not shown) [Compound 504]
27,> 1000,CS(=O)(=O)c1ccc(Oc2cncc(Br)c2)c2c1[C@H](O)[C@H](F)C2 [Compound 326]
28,> 1000,COc1ccc(S(=O)(=O)C(F)(F)F)c2c1CC(F)(F)C2O (stereo not shown) [Compound 590]
29,> 1000,CN(C)Cc1c(S(=O)(=O)C(F)F)ccc(Oc2cc(F)cc(Cl)c2)c1C#N [Compound 36]
30,> 1000,COCCOc1ccc(S(=O)(=O)C(F)(F)F)c2c1CCC2O (stereo not shown) [Compound 599]
